Patent publication US9249154B2, “Compounds and therapeutic use thereof for protein kinase inhibition” (priority 2008, dated 2016)
Where two headings read alike, the source gives them in different places.

Key:
[1] = system: Human Gastric Cancer (BGC-823); assay: In vitro anti-cancer cell activity (cellular toxicity, SRB and MTT methods, 72 hours); format: cell-based; details: read-out: In vitro anti-cancer cell activities IC50, Human Gastric Cancer (BGC-823)
Human colon cancer HT-29 = assay: as above; format: cell-based; details: read-out: In vitro anti-cancer cell activities IC50, Human colon cancer HT-29
Mouse Lung Cancer (3LL) = assay: as above; format: cell-based; details: read-out: In vitro anti-cancer cell activities IC50, Mouse Lung Cancer (3LL)
[2] = system: Human Ovarian cancer (A2780); assay: as above; format: cell-based; details: read-out: In vitro anti-cancer cell activities IC50, Human Ovarian cancer (A2780)
[3] = system: transplanted human colon cancer HT-99; assay: Effects on HT99 transplanted nude mice; format: in vivo; details: 60 mg/kg ip, d0, 1; for RTV (relative tumor volume) / TV dn: X ± SD; for TV dn: dn = 17 days after drug treatment

| Compound | IC50 [1] | T/C [3] | RTV (relative tumor volume) [3] | TV dn [3] | IC50 (Mouse Lung Cancer (3LL); Mus musculus) | also measured |
| --- | --- | --- | --- | --- | --- | --- |
| 2-(4-chlorophenyl)-4-(3-α-thiapyranmethy)-thieno[2,3-d]pyridazine-7-carboxylic acid amide [Compound 11] | 9.24 µM | 113.4% | 7.52 ± 0.26 | 1224 ± 440 mm^3 | – | IC50 (Human colon cancer HT-29): 10.7 µM; IC50 (Mouse Lung Cancer (3LL)): 8.43 µM; IC50 [2]: 11.8 µM |
| NC(=O)c1nnc(CC2CCNCC2)c2cc(-c3ccc(Cl)cc3)sc12 [Compound 5, 2-(4-chlorophenyl)-4-(4-piperidinemethy)-thieno[2,3-d]pyridazine-7-carboxylic acid amide] | – | 96.5% | 6.40 ± 0 | 910 ± 0 mm^3 | – | – |
| NC(=O)c1nnc(Cc2ccncc2)c2cc(-c3ccc(Cl)cc3)sc12 [Compound 13, 2-(4-chlorophenyl)-4-(4-pyridinemethy)-thieno[2,3-d]pyridazine-7-carboxylic acid amide] | 2.62 µM | – | – | – | – | IC50 (Human colon cancer HT-29): 0.73 µM; IC50 (Mouse Lung Cancer (3LL)): 1.24 µM; IC50 [2]: 1.18 µM |
| NC(=O)c1nnc(Cc2cc[nH]c2)c2cc(-c3ccc(Cl)cc3)sc12 [Compound 14, 2-(4-chlorophenyl)-4-(3-pyrrolemethy)-thieno[2,3-d]pyridazine-7-carboxylic acid amide] | 30.5 µM | – | – | – | – | IC50 (Human colon cancer HT-29): 16.8 µM; IC50 (Mouse Lung Cancer (3LL)): 8.59 µM; IC50 [2]: 6.01 µM |
| NC(=O)c1nnc(Cc2ccoc2)c2cc(-c3ccc(Cl)cc3)sc12 [Compound 15, 2-(4-chlorophenyl)-4-(3-furanmethy)-thieno[2,3-d]pyridazine-7-carboxylic acid amide] | 2.25 µM | – | – | – | – | – |
| CN(C)C(=O)c1nnc(CC2CCCOC2)c2cc(-c3ccc(Cl)cc3)sc12 (centres unmarked) [Compound 19] | – | 68.3% | 4.53 ± 0.82 | 663 ± 86 mm^3 | – | – |
| NC(=O)c1nnc(CC2CCNC2)c2cc(-c3ccc(Br)cc3)sc12 (centres unmarked) [Compound 22] | – | 70.7% | 4.69 ± 0.71 | 714 ± 127 mm^3 | – | – |
| NC(=O)c1nnc(CC2CCOC2)c2cc(-c3ccc(F)cc3)sc12 (centres unmarked) [Compound 23] | – | – | – | – | > 100 µM | – |
| NC(=O)c1nnc(CC2CCOC2)c2cc(-c3ccc(Cl)cc3)sc12 (centres unmarked) [Compound 24] | – | – | – | – | > 100 µM | IC50 ([1]; Homo sapiens): 24.6 µM; IC50 (Human colon cancer HT-29; Homo sapiens): > 100 µM; IC50 ([2]; Homo sapiens): > 100 µM |
| NC(=O)c1nnc(CC2CCNC2)c2cc(-c3ccc(Cl)cc3)sc12 (centres unmarked) [Compound 30] | – | 57.0% | 3.78 ± 1.09 | 482 ± 83 mm^3 | – | – |
| NC(=O)c1nnc(CC2CCNC2)c2cc(-c3ccc(Cl)cc3)sc12 (centres unmarked) [Compound 31] | – | 80.8% | 5.36 ± 1.94 | 785 ± 300 mm^3 | – | – |
| NC(=O)c1nnc(Cc2cccnc2)c2cc(-c3ccc(F)cc3)sc12 [Compound 38] | – | – | – | – | 3.13 µM | – |
| CN(C)C(=O)c1nnc(Cc2ccoc2)c2cc(-c3ccc(Cl)cc3)sc12 [Compound 70] | – | – | – | – | > 100 µM | – |
